Laboratory results: patent publication US5219884A, “Immunosuppressant” (Taito Co., Ltd., priority 1990, dated 1993)
≈ marks a conversion by molar mass, not a printed value. Like-named read-outs stand apart in the source and are kept apart here.

Legend:
[1] = system: mouse allogenic mixed lymphocyte reaction (BALB/c responder, C57BL/6 stimulator spleen cells); assay: mouse allogenic mixed lymphocyte reaction (MLR), blastogenesis by 3H-thymidine uptake; format: cell-based
Experimental: The immunosuppressive activity of the compounds (I) and their lactones was assayed by using mouse allogenic mixed lymphocyte reaction (hereinafter sometimes abbreviated as MLR). Mouse allogenic MLR was carried out by mixed culture of the BALB/c mouse (H-2^d) spleen cells as the responder cells and the mitomycin C-treated C57BL/6 (H-2^b) spleen cells as the stimulator cells in equal amounts.
The responder cells were prepared as follows: The spleen was resected from 5- to 6-week-old male BALB/c mice, and single cell suspension of spleen cells was prepared by using the RPMI1640 culture medium (containing 60 μg/ml of kanamycin sulfate, 2 mM of L-glutamine, 10 mM of N-2-hydroxyethylpiperazine-N'-2-ethanesulfonate (HEPES) and 0.1% sodium hydrogencarbonate) to which heat-inactivated fetal calf serum (hereinaftersometimes abbreviated as FCS) had been added to 5%. After hemolytic treatment, the cell suspension was adjusted to a concentration of 10^7 cells/ml by using the RPMI1640 culture medium supplemented with 10^-4 M 2-mercaptoethanol and 20% FCS, and was used as the responder cell suspension.
The stimulator cells were prepared as follows:
The spleen was resected from 5- to 6-week-old male C57BL/6 mice, and single cell suspension of spleen cells was prepared by using the RPMI1640 culture medium. After hemolytic treatment, the cells were treated with 40 μg/ml of mitomycin C at 37° C. for 60 minutes. After washing three times, the concentration of the cell suspension was adjusted to 10^7 cells/ ml by using the RPMI1640 culture medium supplemented with 10^-4 M 2-mercaptoethanol and 20% FCS, and was used as the stimulator cell suspension.
Fifty μl of the responder cell suspension, 50μl of the stimulator cell suspension prepared by the above method, and 100 μl of the test substance were placed in 96-well microculture plates, and were cultured at 37° C. in an atmosphere of 5% carbon dioxide for 4 days.
The blastogenesis of lymphocytes was assayed by a method of ^3 H-thymidine uptake as an index. That is, after termination of the culture, 0.5 μCi/well of ^3 H-thymidine was added and cultured for 4 hours. Cells were harvested by a cell-harvester, and the radioactivity incorporated into the cells was determined by a liquid scintillation counter to obtain the index of blastogenesis of lymphocytes in the mouse allogenic MLR. The suppression of the mouse allogenic MLR was evaluated by calculating the percent suppression by the following formula. [formula]
The test substance was dissolved in methanol or suspended in a mixture of methanol and acetic acid, and then diluted with the RPMI1640 culture medium.

mouse L929 cells = assay: cytotoxicity to mouse L929 cells; format: cell-based; conditions: 550 nm
Experimental: Cytotoxicity to mouse L929 cells was assayed as follows:
L929 cells were suspended to the concentration of 1.5×10^5 cells/ml in the F12 culture medium supplemented with 10% FCS. One hundred μl of the suspension was added to each well of 96-well microculture plates, and cultured at 37° C. in an atmosphere of 5% carbon dioxide for 24 hours, to which 100 μl of the test solution was added and cultured for further 48 hours. After the culture, 100 μl of the supernatant was removed and the absorbancy at 550 nm was measured in the same way as the colormetry using MTT in Experimental Example 1. The percent suppression was calculated by the following formula used as the index of cytotoxicity. [formula]

in vitro = format: cell-based, human; conditions: human, read-out: Suppression
Experimental: (§1) Cytotoxicity to human tumor cell lines was examined as follows:
(§2) Cells of human cell lines, K562, MOLT4, U937, HL60, KATOIII, KB, PC-6, PC-14 and CCRF-CEM were separately suspended to the concentration of 2×10^5 cells/ml in the RPMI1640 culture medium supplemented with 20% FCS. Fifty μl of this suspension was added to each well of 96-well microculture plates to which 50 μl of the test solution had been added. After culturing at 37° C. in an atmosphere of 5% carbon dioxide for 72 hours, the absorbancy at 550 nm was measured in the same way as the colorimetry using MTT in Experimental Example 1, and the percent suppression was calculated in the same manner as in Experimental Example 14, which was used as the index of cytotoxicity.

CCRF-CEM = assay: in vitro; format: cell-based, human
Experimental: as §1, §2

HL60 = assay: in vitro; format: cell-based, human
Experimental: as §1, §2

K562 = assay: in vitro; format: cell-based, human
Experimental: as §1, §2

KB = assay: in vitro; format: cell-based, human
Experimental: as §1, §2

PC-14 = assay: in vitro; format: cell-based, human
Experimental: as §1, §2

U937 = assay: in vitro; format: cell-based, human
Experimental: as §1, §2

[2] = cytotoxicity to tumor cell line MOLT4; format: cell-based, human; conditions: human, molt4 cells, read-out: Suppression
Experimental: as §1, §2

MOLT4 = assay: cytotoxicity to tumor cell line MOLT4; format: cell-based, human
Experimental: as §1, §2

[3] = Mus musculus, Lymphocyte, read-out: Suppression

CCCCCCC(=O)CCCCCC/C=C/CC(O)C(O)C(N)(CO)C(=O)O (stereo not shown) [Example 1] showed a 3H-thymidine uptake ([1]; 0.001 μg/ml) of 14760 cpm, a 3H-thymidine uptake ([1]; 0.01 μg/ml) of 6436 cpm and a 3H-thymidine uptake ([1]; 0.1 μg/ml) of 686 cpm. The 3H-thymidine uptake ([1]; 1 μg/ml) was 698 cpm, the IC50 ([1]; Mus musculus, Lymphocyte, read-out: 50%-inhibition concentration (IC50)) was 7.1 ng/mL (≈ 0.0177 µM) and the inhibition at 0.001 µg/mL [1, 3] was 0%. It also gave an inhibition at 0.01 µg/mL [1, 3] of 59.2%, an inhibition at 0.1 µg/mL [1, 3] of 100% and an inhibition at 1 µg/mL [1, 3] of 100%. It also gave an Absorbancy (mouse L929 cells; 1 μg/ml) of 0.699, an Absorbancy (mouse L929 cells; 10 μg/ml) of 0.693 and an Absorbancy (mouse L929 cells; 100 μg/ml) of 0.321. It also gave a cytotoxicity at 72 h (in vitro; hl60 cells, 1.0 μg/ml) of 38.2%, a cytotoxicity at 72 h (in vitro; pc-14 cells, 1.0 μg/ml) of 7% and an Absorbancy (CCRF-CEM; 0.01 μg/ml) of 0.678. It also gave an Absorbancy (CCRF-CEM; 0.1 μg/ml) of 0.709, an Absorbancy (CCRF-CEM; 1.0 μg/ml) of 0.660 and an Absorbancy (CCRF-CEM; 10.0 μg/ml) of 0.637. For the same compound, the Absorbancy (CCRF-CEM; 100.0 μg/ml) was 0.013, the Absorbancy (HL60; 0.1 μg/ml) was 0.402 and the Absorbancy (HL60; 1.0 μg/ml) was 0.390. It also gave an Absorbancy (HL60; 10.0 μg/ml) of 0.377, an Absorbancy (HL60; 100.0 μg/ml) of 0.101 and an Absorbancy (K562; 0.1 μg/ml) of 0.886. For the same compound, the Absorbancy (K562; 1.0 μg/ml) was 0.905, the Absorbancy (K562; 10.0 μg/ml) was 0.929 and the Absorbancy (K562; 100.0 μg/ml) was 0.583. It also gave an Absorbancy (KB; 0.01 μg/ml) of 0.898, an Absorbancy (KB; 0.1 μg/ml) of 0.865 and an Absorbancy (KB; 1.0 μg/ml) of 0.879. It also gave an Absorbancy (KB; 10.0 μg/ml) of 0.886, an Absorbancy (KB; 100.0 μg/ml) of 0.025 and an Absorbancy (PC-14; 0.01 μg/ml) of 0.801. It also gave an Absorbancy (PC-14; 0.1 μg/ml) of 0.770, an Absorbancy (PC-14; 1.0 μg/ml) of 0.732 and an Absorbancy (PC-14; 10.0 μg/ml) of 0.751. It also gave an Absorbancy (PC-14; 100.0 μg/ml) of 0.074, an Absorbancy (U937; 0.1 μg/ml) of 0.619 and an Absorbancy (U937; 1.0 μg/ml) of 0.567. The Absorbancy (U937; 10.0 μg/ml) was 0.497, the Absorbancy (U937; 100.0 μg/ml) was 0.156 and the cytotoxicity at 72 h ([2]; 0.1 μg/ml) was 9.4%. The Absorbancy (MOLT4; 0.1 μg/ml) was 0.560, the Absorbancy (MOLT4; 1.0 μg/ml) was 0.559 and the Absorbancy (MOLT4; 10.0 μg/ml) was 0.499. For the same compound, the Absorbancy (MOLT4; 100.0 μg/ml) was 0.074.

Work on CCCCCCC(=O)CCCCCC/C=C/CC1OC(=O)C(N)(CO)C1O (stereo not shown) [Example 4] yielded a 3H-thymidine uptake ([1]; 0.001 μg/ml) of 29598 cpm, a 3H-thymidine uptake ([1]; 0.01 μg/ml) of 10394 cpm and a 3H-thymidine uptake ([1]; 0.1 μg/ml) of 1414 cpm. For the same compound, the inhibition at 0.001 µg/mL ([1]; Mus musculus, Lymphocyte, 0.001 μg/ml, read-out: Suppression) was 0.4%, the inhibition at 0.01 µg/mL ([1]; Mus musculus, Lymphocyte, 0.01 μg/ml, read-out: Suppression) was 70% and the inhibition at 0.1 µg/mL ([1]; Mus musculus, Lymphocyte, 0.1 μg/ml, read-out: Suppression) was 100%. The cytotoxicity at 72 h (in vitro; ccrf-cem cells, 0.1 μg/ml) was 11.3%, the cytotoxicity at 72 h (in vitro; ccrf-cem cells, 1.0 μg/ml) was 12.6% and the cytotoxicity at 72 h (in vitro; ccrf-cem cells, 10.0 μg/ml) was 37.4%. It also gave a cytotoxicity at 72 h (in vitro; ccrf-cem cells, 100.0 μg/ml) of 99.4%, a cytotoxicity at 72 h (in vitro; hl60 cells, 0.1 μg/ml) of 23.4% and a cytotoxicity at 72 h (in vitro; hl60 cells, 1.0 μg/ml) of 13.3%. The cytotoxicity at 72 h (in vitro; hl60 cells, 10.0 μg/ml) was 21.1%, the cytotoxicity at 72 h (in vitro; hl60 cells, 100.0 μg/ml) was 97.7% and the cytotoxicity at 72 h (in vitro; k562 cells, 0.1 μg/ml) was 14.7%. The cytotoxicity at 72 h (in vitro; k562 cells, 1.0 μg/ml) was 8.3%, the cytotoxicity at 72 h (in vitro; k562 cells, 10.0 μg/ml) was 14.5% and the cytotoxicity at 72 h (in vitro; k562 cells, 100.0 μg/ml) was 98.9%. For the same compound, the cytotoxicity at 72 h (in vitro; katoiii cells, 0.1 μg/ml) was 5.3%, the cytotoxicity at 72 h (in vitro; katoiii cells, 1.0 μg/ml) was 6.7% and the cytotoxicity at 72 h (in vitro; katoiii cells, 10.0 μg/ml) was 25.8%. The cytotoxicity at 72 h (in vitro; katoiii cells, 100.0 μg/ml) was 97.9%, the cytotoxicity at 72 h (in vitro; kb cells, 0.1 μg/ml) was 19% and the cytotoxicity at 72 h (in vitro; kb cells, 1.0 μg/ml) was 2.5%. It also gave a cytotoxicity at 72 h (in vitro; kb cells, 10.0 μg/ml) of 33.5%, a cytotoxicity at 72 h (in vitro; kb cells, 100.0 μg/ml) of 99% and a cytotoxicity at 72 h (in vitro; pc-14 cells, 0.1 μg/ml) of 0%. It also gave a cytotoxicity at 72 h (in vitro; pc-14 cells, 1.0 μg/ml) of 0%, a cytotoxicity at 72 h (in vitro; pc-14 cells, 10.0 μg/ml) of 0% and a cytotoxicity at 72 h (in vitro; pc-14 cells, 100.0 μg/ml) of 95.3%. The cytotoxicity at 72 h (in vitro; u937 cells, 0.1 μg/ml) was 16.1%, the cytotoxicity at 72 h (in vitro; u937 cells, 1.0 μg/ml) was 0% and the cytotoxicity at 72 h (in vitro; u937 cells, 10.0 μg/ml) was 2.9%. It also gave a cytotoxicity at 72 h (in vitro; u937 cells, 100.0 μg/ml) of 99%, an Absorbancy (CCRF-CEM; 0.1 μg/ml) of 0.564 and an Absorbancy (CCRF-CEM; 1.0 μg/ml) of 0.556. It also gave an Absorbancy (CCRF-CEM; 10.0 μg/ml) of 0.389, an Absorbancy (CCRF-CEM; 100.0 μg/ml) of 0.004 and an Absorbancy (HL60; 0.1 μg/ml) of 0.265. For the same compound, the Absorbancy (HL60; 1.0 μg/ml) was 0.300, the Absorbancy (HL60; 10.0 μg/ml) was 0.273 and the Absorbancy (HL60; 100.0 μg/ml) was 0.008. The Absorbancy (K562; 0.1 μg/ml) was 0.524, the Absorbancy (K562; 1.0 μg/ml) was 0.563 and the Absorbancy (K562; 10.0 μg/ml) was 0.525. It also gave an Absorbancy (K562; 100.0 μg/ml) of 0.007, an Absorbancy (KB; 0.1 μg/ml) of 0.884 and an Absorbancy (KB; 1.0 μg/ml) of 1.065. For the same compound, the Absorbancy (KB; 10.0 μg/ml) was 0.726, the Absorbancy (KB; 100.0 μg/ml) was 0.012 and the Absorbancy (PC-14; 0.1 μg/ml) was 0.656. The Absorbancy (PC-14; 1.0 μg/ml) was 0.679, the Absorbancy (PC-14; 10.0 μg/ml) was 0.657 and the Absorbancy (PC-14; 100.0 μg/ml) was 0.030. The Absorbancy (U937; 0.1 μg/ml) was 0.313, the Absorbancy (U937; 1.0 μg/ml) was 0.384 and the Absorbancy (U937; 10.0 μg/ml) was 0.362. The Absorbancy (U937; 100.0 μg/ml) was 0.004, the cytotoxicity at 72 h ([2]; 0.1 μg/ml) was 14% and the cytotoxicity at 72 h ([2]; 1.0 μg/ml) was 14.2%. For the same compound, the cytotoxicity at 72 h ([2]; 10.0 μg/ml) was 22.8%, the cytotoxicity at 72 h ([2]; 100.0 μg/ml) was 97.1% and the Absorbancy (MOLT4; 0.1 μg/ml) was 0.351. It also gave an Absorbancy (MOLT4; 1.0 μg/ml) of 0.350, an Absorbancy (MOLT4; 10.0 μg/ml) of 0.315 and an Absorbancy (MOLT4; 100.0 μg/ml) of 0.012.
